This is an account of results in patent US10363235B2, “Compositions comprising 15-HEPE and methods of treating or preventing fibrosis using same” (Afimmune Limited, priority 2014, dated 2019).

Molecules are shown by their SMILES. “Also recorded” adds a separate entry of the source.

One series deals with mouse model of NAFLD. The series can be described thus: mouse model of NAFLD (streptozotocin plus high-fat diet), Example 1. It counts as in vivo, mice (C57/BL6). Particulars: for fibrosis (histology, sirius red staining): compared to vehicle, FIGS. 7A-7D; for NAFLD Activity Score (NAS): FIGS. 8A-D. Here is the method: The purpose of this study was to examine the effects of 15-HEPE and 15-HETrE compared to vehicle and to telmisartan in a mouse model of NAFLD.
C57/BL6 mice obtained from Charles River Laboratories were divided into 6 study groups as follows:
Group 1 (Vehicle): Twelve mice were each administered a single dose of steptozotocin after birth and fed a high-fat diet for four weeks. The mice were then fed vehicle in a volume of 10 mL/kg once daily from 5 to 12 weeks of age.
Group 2 (telmisartan): Twelve mice were each administered a single dose of steptozotocin after birth and fed a high-fat diet for four weeks. The mice were then fed telmisartan in an amount of 5 mg/kg once daily from 5 to 12 weeks of age.
Group 3 (15-HEPE, low dose): Twelve mice were each administered a single dose of steptozotocin after birth and fed a high-fat diet for four weeks. The mice were then fed 15-HEPE in an amount of 50 mg/kg once daily from 5 to 12 weeks of age.
Group 4 (15-HEPE, high dose): Twelve mice were each administered a single dose of steptozotocin after birth and fed a high-fat diet for four weeks. The mice were then fed 15-HEPE in an amount of 500 mg/kg once daily from 5 to 12 weeks of age.
Group 5 (15-HETrE, low dose): Twelve mice were each administered a single dose of steptozotocin after birth and fed a high-fat diet for four weeks. The mice were then fed 15-HETrE in an amount of 10 mg/kg once daily from 5 to 12 weeks of age.
Group 6 (15-HETrE, high dose): Twelve mice were administered a single dose of steptozotocin after birth and fed a high-fat diet for four weeks. The mice were then fed 15-HETrE in an amount of 100 mg/kg once daily from 5 to 12 weeks of age.
At 12 weeks of age, all mice were assessed for changes in: • serum biochemistry (e.g., ALT levels, LDL levels, VLDL levels, HDL levels, triglyceride levels, total cholesterol level), • fibrosis (e.g., histology using sirius red staining), and • NAFLD activity score (including, e.g., H&E staining histology). Results

Series [1] concerns Lung Fibroblasts from Idiopathic Pulmonary Fibrosis (IPF) patients. The series can be described thus: cytotoxicity in IPF lung fibroblasts. It counts as cell-based, human. Particulars: treatment for 48 hours.
Series [2] deals with mouse model of non-alcoholic steatohepatitis (NASH). The series can be described thus: NASH mouse model (streptozotocin plus high fat diet), liver fibrosis, Example 2. It counts as in vivo, mice. Particulars: 500 mg/kg orally once daily from 5 to 9 weeks of age; compared with EPA (500 mg/kg) or vehicle; FIG. 9. On the procedure:
Non-alcoholic steatohepatitis (NASH) was induced in mice by a single subcutaneous injection of 200 μg of streptozotocin (Sigma Aldrich) two days after birth and feeding with high fat diet (57 kcal % fat, CLEA Japan) after 4 weeks of age. After randomization, each mouse was orally administered vehicle, telmisartan (10 mg/kg), 15-HEPE (500 mg/kg) or EPA (500 mg/kg) once daily from 5 to 9 weeks of age. At the end of the 9th week, the mice were sacrificed and analyzed.

Series [3] in a line: 15-HEPE levels in tissues of dosed rats. It counts as in vivo. Particulars: 500 mg/kg for 7 days, treated vs untreated control, FIG. 11. Here is the method: Rats (n=5) were dosed with 15-HEPE (DS102) 500 mg/kg for 7 days and organs excised to analyse 15-HEPE levels in the tissues of treated vs untreated animals.
Series [4] relates to Lung Fibroblasts from Idiopathic Pulmonary Fibrosis (IPF) patients. The series can be described thus: TGF-beta induced alpha-SMA production in IPF lung fibroblasts. Particulars: 100 ug/ml; 2 hours pretreatment, then TGF beta (20 ng/ml) for 48 hours; FIG. 10. It counts as cell-based, human. On the procedure: Lung Fibroblasts from Idiopathic Pulmonary Fibrosis (IPF) patients were plated at 10000 cells per well in their respective growth mediums and allowed to attach overnight. After attachment, the cells were pretreated with 15(S)-HEPE for 2 hours in their respective assay mediums. After 2 hours, the cells were then treated with compounds+/−TGF beta (20 ng/ml) for 48 hours. After 48 hours, the conditioned media was collected and frozen at −80° C. for future collagen analysis. After collection, the cells were stained for SMA I expression. The collagen ELISA was performed according to the manufacturer's instructions.

[5] abbreviates: telmisartan 5 mg/kg once daily from 5 to 12 weeks of age, vs vehicle.

For `CCCc1nc2c(C)cc(-c3nc4ccccc4n3C)cc2n1Cc1ccc(-c2ccccc2C(=O)O)cc1` [telmisartan, 2-(4-{[4-Methyl-6-(1-methyl-1H-1,3-benzodiazol-2-yl)-2-propyl-1H-1,3-benzodiazol-1-yl]methyl}phenyl)benzoic acid], the “fibrosis (histology, sirius red staining)” value in the series on mouse model of NAFLD (telmisartan 5 mg/kg once daily from 5 to 12 weeks of age) is “low amount of fibrosis”. In the series on mouse model of NAFLD (setting [5]), the Hydroxyproline levels entry is on record as “did not show statistically significant reductions”, the LDL levels result is “did not show statistically significant reductions”, the Total cholesterol levels entry was “did not show statistically significant reductions” and the VLDL levels result is recorded as “did not show statistically significant reductions”. Also, in the series with mouse model of NAFLD (setting [5]), the “plasma ALT levels” value is reported as “did not show statistically significant reductions” and the serum triglycerides result is “did not show statistically significant reductions”. The “NAFLD Activity Score (NAS)” value in the series on mouse model of NAFLD (telmisartan 5 mg/kg once daily from 5 to 12 weeks of age, vs vehicle, p<0.001) is “significantly lower”.
For the compound `CCC=CCC(O)C=CC=CCC=CCC=CCCCC(=O)O` (stereo not shown) [15-HEPE, 15-Hydroxy-eicosa-5,8,11,13,17-pentaenoic acid], the cytotoxicity result in series [1] was “No cytotoxicity”. Moreover, in series [2], the “treating and/or preventing liver fibrosis” value was “more effective”. For the same compound, in series [3], the “15-HEPE level in the liver” value is given as “significantly more” and the “15-HEPE level in the lung” value was “significantly more”. Besides, the “fibrosis (histology, sirius red staining)” value in the series on mouse model of NAFLD (high-dose 15-HEPE 500 mg/kg once daily from 5 to 12 weeks of age, equivalent to telmisartan) is recorded as “statistically equivalent low amount of fibrosis”. The “plasma ALT levels” value in the series on mouse model of NAFLD (high-dose 15-HEPE 500 mg/kg once daily from 5 to 12 weeks of age, vs high-dose 15-HETrE group (100 mg/kg), FIG. 6) was “significantly lower”. Besides, the “NAFLD Activity Score (NAS)” value in the series with mouse model of NAFLD (high-dose 15-HEPE 500 mg/kg once daily from 5 to 12 weeks of age, vs placebo (vehicle), p<0.01) was “significantly lower”. Besides, the “plasma ALT levels” value in the series on mouse model of NAFLD (high-dose 15-HEPE 500 mg/kg once daily from 5 to 12 weeks of age, vs vehicle, FIG. 6) was “significantly lower”. Besides, the Total cholesterol levels result in the series with mouse model of NAFLD (low-dose 15-HEPE 50 mg/kg once daily from 5 to 12 weeks of age, vs vehicle, FIG. 4) is “significantly lower”. The “TGF-beta induced alpha-SMA production” value in series [4] was “inhibited; also recorded: inhibition”.
For the compound `CCCCCC(O)/C=C/C=C\C/C=C\CCCCCCC(=O)O` (stereo not shown) [15-HETrE, 15-hydroxyeicosa-8(Z),11(Z),13(E)-trienoic acid], the serum triglycerides result with mouse model of NAFLD (low-dose 15-HETrE 10 mg/kg once daily from 5 to 12 weeks of age, vs vehicle (Mann Whitney), FIG. 1) is listed as “significantly lower”. Also, the VLDL levels result in the series on mouse model of NAFLD (low-dose 15-HETrE 10 mg/kg once daily from 5 to 12 weeks of age, vs vehicle, FIG. 2) was “significantly lower”. In the series with mouse model of NAFLD (low-dose 15-HETrE 10 mg/kg once daily from 5 to 12 weeks of age, vs vehicle, FIG. 3), the LDL levels result is given as “significantly lower”. The Total cholesterol levels result in the series with mouse model of NAFLD (low-dose 15-HETrE 10 mg/kg once daily from 5 to 12 weeks of age, vs vehicle, FIG. 4) is listed as “significantly lower”.
